Structures can show the parent of a compound that is named as a salt. Where two headings read alike, the source gives them in different places.
Experiments:
erbB1 (EGFR) = erbB1 (EGFR) (Homo sapiens, UniProt P00533); experiment: Inhibition of erbB1 autophosphorylation in EGF-stimulated intact A431 cells (Western immunoblotting); assay type: cell-based; settings: 1 hour treatment, phospho-EGFR (Tyr 1068), β-actin corrected
Protocol: (§1) A431 cells were seeded into 6 well plates (with αMEM+5% FCS). The following day, plates were washed once with serum-free medium and grown for 18 hours in serum-free medium (αMEM) before being exposed to a range of inhibitor or prodrug concentrations for 1 hour and then stimulated for 15 minutes with 100 ng/ml epidermal growth factor (EGF receptor ligand). Next cells were washed with ice cold PBS and lysed in modified RIPA buffer on ice (30 min). Lysates were vortexed and clarify by spinning before protein concentrations of samples was determined by BCA assay. […] All antibodies were diluted in 2% BSA TBS-Tween 0.1%. To detect phospho-EGFR (Tyr 1068) the monoclonal antibody (1:500; Cell Signalling #2234) was incubated overnight at 4° C. and binding was detected with goat-anti-Rabbit-IgG-HRP conjugated secondary antibody (1:5000; Santa Cruz #SC2054; 3 h RT). To detect downstream phospho-p44/42 MAPK(Erk 1/2) (Thr202/Tyr 204) the monoclonal antibody (Cell Signalling #4370) was used at a 1:500 dilution. The blot was then treated with Goat anti-rabbit IgG-HRP conjugated secondary antibody (Santa Cruz Biotechnology, Inc. sc-2054) for three hours at a ratio of 1:5000. To normalise for any inaccuracy in gel loading, each blot was probed with anti-β-actin antibody (Abacus ALS #MAB-1501R, 1:2000 dilution). The following day, the blot was treated with Goat anti-mouse IgG-HRP conjugated secondary antibody (Santa Cruz Biotechnology, Inc. sc-2055) for one hour at a 1:5000 ratio. Protein bands were visualized using Amersham ECL Plus Western Blotting Detection Reagent (GE Healthcare RPN2132). Densitometry was determined using Image J software. Values normalized to β-actin were plotted on SigmaPlot 11.0.

p44/42 MAPK (Erk1/2) = experiment: Inhibition of p44/42 MAPK (Erk1/2) phosphorylation in EGF-stimulated intact A431 cells (Western immunoblotting); assay type: cell-based, human; settings: for downstream p44/42 MAPK(Erk 1/2) phosphorylation (Thr202/Tyr 204), result in words: 1 hour treatment
Protocol: as §1

H1975 tumours = settings: for Drug related deaths / Weight Loss Nadir (%): H1975 xenograft, q3dx4, intraperitoneal; for Drug related deaths: lactate buffer pH 4; for Weight Loss Nadir (%): mean nadir relative to day 0 weight
A431 tumours = settings: A431 xenograft, q3dx4, intraperitoneal; for Drug related deaths: lactate buffer pH 4; for TGD (Tumour Growth Delay): % increase in time to RTV4 relative to control; for Weight Loss Nadir (%): mean nadir relative to day 0 weight
A431 cells = experiment: Inhibition of cellular proliferation (sulforhodamine B staining)
H1975 cells = experiment: as above; settings: for H1975 HCR (Hypoxic Cytotoxicity Ratio): fold change in intra-experimental IC50, 4 hours anoxia relative to oxic only
SKOV3 cells = experiment: as above; settings: for SKOV3 HCR (Hypoxic Cytotoxicity Ratio): fold change in intra-experimental IC50, 4 hours anoxia relative to oxic only
[1] = Fragmentation rate constant of 1-electron reduced prodrugs by pulse radiolysis; assay type: physicochemical; settings: formation of benzyl-type radicals absorbing in the 360-390 nm region
Text: The rate constants for fragmentation, kfrag, of the 1-electron reduced prodrugs can be measured using pulse radiolysis to observe the time-resolved formation of the absorption spectrum of the benzyl-type radical produced upon fragmentation of the radical anion.

[2] = pulse radiolysis, determined against methylviologen
[3] = read-out: Cellular Growth Inhibition IC50 A431 Anoxic, initial 4 hours of the 24 hour exposure under anoxic conditions
[4] = read-out: Cellular Growth Inhibition IC50 A431 Oxic, 24 hour exposure entirely under oxic conditions, washed, further 4 days
[5] = read-out: Cellular Growth Inhibition IC50 H1975 Anoxic, initial 4 hours of the 24 hour exposure under anoxic conditions
[6] = read-out: Cellular Growth Inhibition IC50 H1975 Oxic, 24 hour exposure entirely under oxic conditions, washed, further 4 days
[7] = read-out: Cellular Growth Inhibition IC50 SKOV3 Anoxic, initial 4 hours of the 24 hour exposure under anoxic conditions
[8] = read-out: Cellular Growth Inhibition IC50 SKOV3 Oxic, 24 hour exposure entirely under oxic conditions, washed, further 4 days

erbB1 (EGFR), sequence (P00533 25-1210): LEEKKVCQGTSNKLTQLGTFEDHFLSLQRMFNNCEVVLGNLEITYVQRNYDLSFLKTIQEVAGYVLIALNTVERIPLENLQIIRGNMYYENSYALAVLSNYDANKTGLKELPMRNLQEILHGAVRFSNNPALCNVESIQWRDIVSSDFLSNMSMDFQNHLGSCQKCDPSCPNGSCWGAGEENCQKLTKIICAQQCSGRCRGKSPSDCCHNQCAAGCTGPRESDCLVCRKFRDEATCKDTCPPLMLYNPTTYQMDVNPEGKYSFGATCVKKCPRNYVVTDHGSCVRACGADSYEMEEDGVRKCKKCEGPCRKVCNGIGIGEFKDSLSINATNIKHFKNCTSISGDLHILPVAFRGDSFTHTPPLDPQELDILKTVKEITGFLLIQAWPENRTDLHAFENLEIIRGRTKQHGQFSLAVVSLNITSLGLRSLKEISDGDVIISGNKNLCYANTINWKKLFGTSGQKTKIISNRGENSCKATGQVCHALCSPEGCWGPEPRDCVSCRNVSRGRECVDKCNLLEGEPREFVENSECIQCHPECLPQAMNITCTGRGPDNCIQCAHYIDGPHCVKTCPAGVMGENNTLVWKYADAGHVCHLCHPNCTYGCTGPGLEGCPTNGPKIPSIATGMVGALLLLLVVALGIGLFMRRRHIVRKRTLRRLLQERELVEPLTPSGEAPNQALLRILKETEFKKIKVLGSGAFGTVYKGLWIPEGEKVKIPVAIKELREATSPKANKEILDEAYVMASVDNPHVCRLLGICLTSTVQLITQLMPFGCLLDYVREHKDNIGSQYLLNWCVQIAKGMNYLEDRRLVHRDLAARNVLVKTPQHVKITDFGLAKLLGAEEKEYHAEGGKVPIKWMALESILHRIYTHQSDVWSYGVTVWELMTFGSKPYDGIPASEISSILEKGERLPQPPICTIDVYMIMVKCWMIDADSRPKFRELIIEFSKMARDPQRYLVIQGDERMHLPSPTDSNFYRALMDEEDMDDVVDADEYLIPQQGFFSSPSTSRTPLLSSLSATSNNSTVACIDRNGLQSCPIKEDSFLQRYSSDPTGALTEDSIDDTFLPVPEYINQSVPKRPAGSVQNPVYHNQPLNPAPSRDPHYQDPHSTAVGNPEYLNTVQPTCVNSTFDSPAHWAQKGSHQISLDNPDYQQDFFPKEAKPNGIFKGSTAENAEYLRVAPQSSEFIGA

SMILES | IC50 (erbB1 (EGFR)) [nM] | downstream p44/42 MAPK(Erk 1/2) phosphorylation (Thr202/Tyr 204), result in words (p44/42 MAPK (Erk1/2)) | Drug related deaths (H1975 tumours) | Weight Loss Nadir (%) (H1975 tumours) | Drug related deaths (A431 tumours) | TGD (Tumour Growth Delay) (A431 tumours) [%] | Weight Loss Nadir (%) (A431 tumours) | IC50 (A431 cells; [3]) [nM] | IC50 (A431 cells; [4]) [nM] | H1975 HCR (Hypoxic Cytotoxicity Ratio) (H1975 cells) | IC50 (H1975 cells; [5]) [nM] | IC50 (H1975 cells; [6]) [nM] | SKOV3 HCR (Hypoxic Cytotoxicity Ratio) (SKOV3 cells) | IC50 (SKOV3 cells; [7]) [nM] | IC50 (SKOV3 cells; [8]) [nM] | kfrag./s^−1 rate constant for fragmentation [1] [s⁻¹] | E(1)/V 1-electron reduction potential [2] [V] | further results
Cc1nc([N+](=O)[O-])c(C[N+](C)(C)C/C=C/C(=O)Nc2cc3c(Nc4ccc5c(cnn5Cc5cccc(F)c5)c4)ncnc3cn2)n1C (as salt: bromide) [Compound 14, (2E)-N-[(1,2-dimethyl-4-nitro-1H-imidazol-5-yl)methyl]-4-[(4-{[1-(3-fluorobenzyl)-1H-indazol-5-yl]amino}pyrido[3,4-d]pyrimidin-6-yl)amino]-N,N-dimethyl-4-oxo-2-buten-1-ammonium bromide] |  |  |  |  |  |  |  |  |  |  |  |  |  |  |  |  |  | melting point: 188 to 192 °C (dec.)
CN(C)C/C=C/C(=O)Nc1cc2c(Nc3ccc(Cl)c(Br)c3)ncnc2cn1 [Compound 5, (2E)-N-[4-(3-bromo-4-chloroanilino)pyrido[3,4-d]pyrimidin-6-yl]-4-(dimethylamino)-2-butenamide] | 39.5 | coordinate loss | 1 | −8.5 ± 0.6 | 0 | >250 | −6.3 ± 4.5 | 10 | 9 | 0.9 | 500 | 290 | 0.9 | 450 | 300 |  |  | A431 HCR (Hypoxic Cytotoxicity Ratio) (A431 cells; fold change in intra-experimental IC50, 4 hours anoxia relative to oxic only): 1.0
CN(C)C/C=C/C(=O)Nc1cc2c(Nc3ccc(Br)c(Cl)c3)ncnc2cn1 [Compound 6, (2E)-N-[4-(4-bromo-3-chloroanilino)pyrido[3,4-d]pyrimidin-6-yl]-4-(dimethylamino)-2-butenamide] | 25 | coordinate loss |  |  | 0 | >250 | −1.5 ± 0.8 | 5 | 5 | 0.7 | 220 | 150 | 0.7 | 550 | 200 |  |  | 
Cn1cnc([N+](=O)[O-])c1C[N+](C)(C)C/C=C/C(=O)Nc1cc2c(Nc3ccc4c(cnn4Cc4cccc(F)c4)c3)ncnc2cn1 [Compound 13, (2E)-4-[(4-{[1-(3-fluorobenzyl)-1H-indazol-5-yl]amino}pyrido[3,4-d]pyrimidin-6-yl)amino]N,N-dimethyl-N-[(1-methyl-4-nitro-1H-imidazol-5-yl)methyl]-4-oxo-2-buten-1-ammonium bromide] |  |  | 0 | −4.1 ± 2.5 |  |  |  | 240 | 6200 |  | 3300 | 92000 |  | 1600 | 315000 | 60 ± 10 | −0.417 | 
Cn1cnc([N+](=O)[O-])c1C[N+](C)(C)C/C=C/C(=O)Nc1cc2c(Nc3ccc(OCc4ccccn4)c(Cl)c3)ncnc2cn1 [Compound 15, (2E)-4-({4-[3-chloro-4-(2-pyridinylmethoxy)anilino]pyrido[3,4-d]pyrimidin-6-yl}amino)-N,N-dimethyl-N-[(1-methyl-4-nitro-1H-imidazol-5-yl)methyl]-4-oxo-2-buten-1-ammonium bromide] | 5290 |  | 0 | −9.4 ± 3.3 |  |  |  | 300 | 10000 |  | 430 | 26000 |  | 600 | 159000 | 60 ± 10 | −0.423 | IC50 (p44/42 MAPK (Erk1/2); Homo sapiens, A-431, 1 hour treatment, read-out: IC50 p44/42 MAPK(Erk 1/2) phosphorylation (Thr202/Tyr 204)): 8900 nM; growth delay of prodrug compared to its cognate kinase inhibitor, result in words (H1975 tumours; H1975 tumours, q3dx4): extended period of growth delay
Cn1cnc([N+](=O)[O-])c1C[N+](C)(C)C/C=C/C(=O)Nc1cc2c(Nc3ccc(Cl)c(Cl)c3)ncnc2cn1 [Compound 16, (2E)-4-{[4-(3,4-dichloroanilino)pyrido[3,4-d]pyrimidin-6-yl]amino}-N,N-dimethyl-N-[(1-methyl-4-nitro-1H-imidazol-5-yl)methyl]-4-oxo-2-buten-1-ammonium bromide] |  |  | 0 | −10.1 ± 0.7 |  |  |  | 15 | 330 |  | 400 | 32000 |  | 530 | 40000 | 60 ± 10 | −0.418 | 

From US9101632B2, “Kinase inhibitors, prodrug forms thereof and their use in therapy” (AUCKLAND UNISERVICES LIMITED, priority 2009, dated 2015)
